From ChEMBL document CHEMBL3885881, “DrugMatrix”

Organism: Rattus norvegicus
Test: DrugMatrix - Regimen: Daily Repeat
Assay type: toxicity, organism-based, Sprague-Dawley
Design: regimen Daily Repeat, gender Male, age 6-8 weeks
Conditions: in vivo, po, route oral GAVAGE, […]; for CHLORIDE / CHOLESTEROL / CREATINE PHOSPHOKINASE / CREATININE / LACTATE DEHYDROGENASE / LIPASE / PHOSPHORUS / POTASSIUM / SODIUM / TOTAL BILIRUBIN / URIC ACID / ALANINE AMINOTRANSFERASE / ALBUMIN / ALKALINE PHOSPHATASE / ASPARTATE AMINOTRANSFERASE / BLOOD UREA NITROGEN / CARBON DIOXIDE: tissue Plasma; for ABSOLUTE BASOPHIL / ABSOLUTE EOSINOPHIL / ABSOLUTE LYMPHOCYTE / ABSOLUTE MONOCYTE / ABSOLUTE SEGMENTED NEUTROPHIL / BASOPHIL / EOSINOPHIL / ERYTHROCYTE COUNT / HEMATOCRIT / HEMOGLOBIN / LEUKOCYTE COUNT / LYMPHOCYTE / MEAN CORPUSCULAR HEMOGLOBIN / MEAN CORPUSCULAR HEMOGLOBIN CONCENTRATION / MEAN CORPUSCULAR VOLUME / NEUTROPHIL / NUCLEATED RED BLOOD CELLS / PLATELET COUNT: tissue Blood
[1] = 10 mg/kg, 120 h, dose level High, time 5 day
[2] = 72 h, dose 3.5 mg/Kg, dose level Low, time 3 day
[3] = 120 h, dose 3.5 mg/Kg, dose level High, time 5 day
[4] = 120 h, dose 3.5 mg/Kg, dose level Low, time 5 day
[5] = dose 3.5 mg/Kg, dose level High, time 28 day

Structure (SMILES): O=C(O)Cc1ccccc1Nc1c(Cl)cccc1Cl [DICLOFENAC]
- CHLORIDE [1]: 99 MEQ/L
- CHOLESTEROL [1]: 69.33 mg/dL
- CREATINE PHOSPHOKINASE [1]: 210.67 u/L
- CREATININE [1]: 0.1 mg/dL
- LACTATE DEHYDROGENASE [1]: 77.33 u/L
- LIPASE [1]: 9 u/L
- PHOSPHORUS [1]: 9.63 mg/dL
- POTASSIUM [1]: 5.24 MEQ/L
- SODIUM [1]: 140.7 MEQ/L
- TOTAL BILIRUBIN [1]: 0.1 mg/dL
- URIC ACID [1]: 0.57 mg/dL
- ABSOLUTE BASOPHIL [2]: 0 CELLS/uL
- ABSOLUTE EOSINOPHIL [2]: 99.33 CELLS/uL
- ABSOLUTE LYMPHOCYTE [2]: 11383.33 CELLS/uL
- ABSOLUTE MONOCYTE [2]: 144 CELLS/uL
- ABSOLUTE SEGMENTED NEUTROPHIL [2]: 540 CELLS/uL
- BASOPHIL [2]: 0%
- EOSINOPHIL [2]: 0.67%
- ERYTHROCYTE COUNT [2]: 5.83 x10E6/uL
- HEMATOCRIT [2]: 36.37%
- HEMOGLOBIN [2]: 14 G/DL
- LEUKOCYTE COUNT [2]: 12.17 x10E3/uL
- LYMPHOCYTE [2]: 92.67%
- MEAN CORPUSCULAR HEMOGLOBIN [2]: 24.03 pg
- MEAN CORPUSCULAR HEMOGLOBIN CONCENTRATION [2]: 38.47 G/DL
- MEAN CORPUSCULAR VOLUME [2]: 62.37 fL
- NEUTROPHIL [2]: 5.33%
- NUCLEATED RED BLOOD CELLS [2]: 0 /100WBC
- PLATELET COUNT [2]: 741.67 x10E3/uL
- ALANINE AMINOTRANSFERASE [2]: 65.67 u/L
- ALBUMIN [2]: 4.03 G/DL
- ALKALINE PHOSPHATASE [2]: 385.67 u/L
- ASPARTATE AMINOTRANSFERASE [2]: 76.33 u/L
- BLOOD UREA NITROGEN [2]: 14 mg/dL
- CARBON DIOXIDE [2]: 34 mmol/L
- CHLORIDE [2]: 101 MEQ/L
- CHOLESTEROL [2]: 82.33 mg/dL
- CREATINE PHOSPHOKINASE [2]: 146 u/L
- CREATININE [2]: 0.13 mg/dL
- LACTATE DEHYDROGENASE [2]: 92.67 u/L
- LIPASE [2]: 12.33 u/L
- PHOSPHORUS [2]: 9.37 mg/dL
- POTASSIUM [2]: 5.57 MEQ/L
- SODIUM [2]: 145.37 MEQ/L
- TOTAL BILIRUBIN [2]: 0.2 mg/dL
- URIC ACID [2]: 0.93 mg/dL
- BASOPHIL [3]: 0.32%
- EOSINOPHIL [3]: 0.48%
- ERYTHROCYTE COUNT [3]: 7.46 x10E6/uL
- HEMATOCRIT [3]: 47.98%
- HEMOGLOBIN [3]: 15.12 G/DL
- LEUKOCYTE COUNT [3]: 9.78 x10E3/uL
- LYMPHOCYTE [3]: 81.22%
- MEAN CORPUSCULAR HEMOGLOBIN [3]: 20.28 pg
- MEAN CORPUSCULAR HEMOGLOBIN CONCENTRATION [3]: 31.52 G/DL
- MEAN CORPUSCULAR VOLUME [3]: 64.32 fL
- NEUTROPHIL [3]: 15.22%
- PLATELET COUNT [3]: 1323.2 x10E3/uL
- ABSOLUTE BASOPHIL [4]: 0 CELLS/uL
- ABSOLUTE EOSINOPHIL [4]: 66 CELLS/uL
- ABSOLUTE LYMPHOCYTE [4]: 7679.67 CELLS/uL
- ABSOLUTE MONOCYTE [4]: 26 CELLS/uL
- ABSOLUTE SEGMENTED NEUTROPHIL [4]: 795 CELLS/uL
- BASOPHIL [4]: 0%
- EOSINOPHIL [4]: 0.67%
- ERYTHROCYTE COUNT [4]: 5.41 x10E6/uL
- HEMATOCRIT [4]: 32.77%
- HEMOGLOBIN [4]: 13.13 G/DL
- LEUKOCYTE COUNT [4]: 8.57 x10E3/uL
- LYMPHOCYTE [4]: 90%
- MEAN CORPUSCULAR HEMOGLOBIN [4]: 24.33 pg
- MEAN CORPUSCULAR HEMOGLOBIN CONCENTRATION [4]: 40.1 G/DL
- MEAN CORPUSCULAR VOLUME [4]: 60.7 fL
- NEUTROPHIL [4]: 9%
- NUCLEATED RED BLOOD CELLS [4]: 0.33 /100WBC
- PLATELET COUNT [4]: 1098.67 x10E3/uL
- ALANINE AMINOTRANSFERASE [3]: 32 u/L
- ALBUMIN [3]: 3.72 G/DL
- ALKALINE PHOSPHATASE [3]: 340 u/L
- ASPARTATE AMINOTRANSFERASE [3]: 77.6 u/L
- BLOOD UREA NITROGEN [3]: 6.8 mg/dL
- CHLORIDE [3]: 110 MEQ/L
- CHOLESTEROL [3]: 66.4 mg/dL
- CREATINE PHOSPHOKINASE [3]: 178.25 u/L
- CREATININE [3]: 0.26 mg/dL
- PHOSPHORUS [3]: 13.9 mg/dL
- POTASSIUM [3]: 6.42 MEQ/L
- SODIUM [3]: 150.8 MEQ/L
- TOTAL BILIRUBIN [3]: 0.16 mg/dL
- ALANINE AMINOTRANSFERASE [4]: 70.33 u/L
- ALBUMIN [4]: 4 G/DL
- ALKALINE PHOSPHATASE [4]: 422.67 u/L
- ASPARTATE AMINOTRANSFERASE [4]: 77.67 u/L
- CARBON DIOXIDE [4]: 32 mmol/L
- CHLORIDE [4]: 99.5 MEQ/L
- CHOLESTEROL [4]: 58.67 mg/dL
- CREATININE [4]: 0.13 mg/dL
- LACTATE DEHYDROGENASE [4]: 79 u/L
- LIPASE [4]: 12.33 u/L
- PHOSPHORUS [4]: 9.27 mg/dL
- POTASSIUM [4]: 5.62 MEQ/L
- SODIUM [4]: 142.7 MEQ/L
- TOTAL BILIRUBIN [4]: 0.2 mg/dL
- URIC ACID [4]: 0.5 mg/dL
- BASOPHIL [5]: 0.51%
- EOSINOPHIL [5]: 0.62%
- ERYTHROCYTE COUNT [5]: 8.14 x10E6/uL
- HEMATOCRIT [5]: 48.9%
- HEMOGLOBIN [5]: 15.9 G/DL
- LEUKOCYTE COUNT [5]: 10.63 x10E3/uL
- LYMPHOCYTE [5]: 82.51%
- MEAN CORPUSCULAR HEMOGLOBIN [5]: 19.56 pg
- MEAN CORPUSCULAR HEMOGLOBIN CONCENTRATION [5]: 32.5 G/DL
- MEAN CORPUSCULAR VOLUME [5]: 60.18 fL
- NEUTROPHIL [5]: 13.48%
- PLATELET COUNT [5]: 1264.5 x10E3/uL
- ALANINE AMINOTRANSFERASE [5]: 29.7 u/L
- ALBUMIN [5]: 3.93 G/DL
- ALKALINE PHOSPHATASE [5]: 205 u/L
- ASPARTATE AMINOTRANSFERASE [5]: 68.5 u/L
- BLOOD UREA NITROGEN [5]: 12.1 mg/dL
- CHLORIDE [5]: 109.6 MEQ/L
- CHOLESTEROL [5]: 55.2 mg/dL
- CREATINE PHOSPHOKINASE [5]: 206.4 u/L
- CREATININE [5]: 0.51 mg/dL
- PHOSPHORUS [5]: 11.24 mg/dL
- POTASSIUM [5]: 6.38 MEQ/L
- SODIUM [5]: 154.6 MEQ/L
- TOTAL BILIRUBIN [5]: 0.21 mg/dL
